Here are results for eight molecules from PubChem BioAssay (NCI).

Test systems include SN12C renal; SF-539 CNS; UACC-257 melanoma; SK-OV-3 ovarian; DU-145 prostate; MCF7 breast; NCI-H460 lung; U251 CNS; RXF 393 renal; HT29 colon.
Assay in all cases: NCI tumour cell line growth inhibition, 48 h

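Test compounds were applied to cells in 96-well plates for 48 hours at 5 doses. The concentration for 50% growth inhibition is given as GI50. TGI: concentration producing complete growth inhibition.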

Consider `C=C1C(=O)O[C@H]2[C@H]1CC/C(COC(=O)C(=O)c1cn(C)c3ccc(Cl)cc13)=C\CC[C@@]1(C)O[C@@H]21`, for which the GI50 in the assay on SN12C renal is 1.39 µM; in the assay on SF-539 CNS, 1.66 µM; in the assay with UACC-257 melanoma, 1.65 µM; in the assay on SK-OV-3 ovarian it was 3.28 µM; with DU-145 prostate, 1.69 µM; in the assay with MCF7 breast it was 0.391 µM. Also, the GI50 was 2.28 µM in the assay on NCI-H460 lung, 1.79 µM in the assay on U251 CNS, 1.06 µM with RXF 393 renal and 0.339 µM in the assay on HT29 colon. Besides, the TGI in the assay on SN12C renal is 4.71 µM; in the assay with SF-539 CNS, 3.36 µM; in the assay with UACC-257 melanoma it was 3.55 µM; in the assay with DU-145 prostate it was 3.63 µM; in the assay on MCF7 breast, 3.19 µM; with NCI-H460 lung it was 6.75 µM. Also, the TGI is 3.38 µM in the assay with U251 CNS, 2.33 µM in the assay on RXF 393 renal and 1.19 µM in the assay with HT29 colon.

`COc1cc2ncn(-c3cc(O[C@@H](C)c4ccccc4Cl)c(C(N)=O)s3)c2cc1OC`: the GI50 in the assay with SN12C renal is 3.05 µM; in the assay with SF-539 CNS, 0.832 µM; in the assay with UACC-257 melanoma, 3.1 µM; in the assay with SK-OV-3 ovarian, 0.803 µM; with DU-145 prostate, 0.727 µM; in the assay with MCF7 breast it was 0.111 µM. The GI50 in the assay with NCI-H460 lung was 0.949 µM; with U251 CNS it was 1.84 µM; in the assay with RXF 393 renal, 0.346 µM; with HT29 colon it was 0.107 µM. Moreover, the TGI in the assay with SN12C renal was over 25 µM; in the assay on SF-539 CNS it was over 25 µM; in the assay with UACC-257 melanoma, over 21.9 µM; in the assay on SK-OV-3 ovarian it was over 25 µM; in the assay on DU-145 prostate it was over 25 µM; in the assay on MCF7 breast, over 25 µM. Moreover, the TGI was over 25 µM in the assay with NCI-H460 lung, over 25 µM in the assay on U251 CNS, over 22.9 µM in the assay on RXF 393 renal and over 25 µM in the assay on HT29 colon.

As for `C[C@@H](O)[C@H](NC(=O)N[C@@H](CC(N)=O)c1nc([C@@H](N)CO)no1)C(=O)O`, the GI50 with SN12C renal, in the assay with SF-539 CNS, in the assay with UACC-257 melanoma, in the assay with SK-OV-3 ovarian, in the assay on DU-145 prostate and in the assay on MCF7 breast was over 100 µM in each case. For the same molecule, the GI50 in the assay with NCI-H460 lung, in the assay on U251 CNS, with RXF 393 renal and in the assay with HT29 colon was over 100 µM throughout. The TGI with SN12C renal, with SF-539 CNS, in the assay on UACC-257 melanoma, in the assay on SK-OV-3 ovarian, in the assay on DU-145 prostate and in the assay with MCF7 breast was over 100 µM throughout. The TGI in the assay with NCI-H460 lung, in the assay with U251 CNS, in the assay on RXF 393 renal and with HT29 colon was over 100 µM in each case.

Turning to `COc1ccc(/C(COc2ccc3c(=O)c(-c4ccccc4)coc3c2)=N\O)cc1`, the GI50 with SN12C renal is 1.65 µM; in the assay with SF-539 CNS, 1.6 µM; in the assay on UACC-257 melanoma, 17.9 µM; in the assay with SK-OV-3 ovarian, 10.1 µM; in the assay on DU-145 prostate, 4.09 µM; with MCF7 breast, 3.16 µM. For the same molecule, the GI50 with NCI-H460 lung is 4 µM; in the assay with U251 CNS, 1.1 µM; in the assay on RXF 393 renal it was 7.81 µM; with HT29 colon, 2.89 µM. Moreover, the TGI in the assay on SN12C renal is 16.4 µM; in the assay with SF-539 CNS, 5.32 µM; with UACC-257 melanoma it was over 60 µM; with SK-OV-3 ovarian, 29.5 µM; in the assay on DU-145 prostate, 33.4 µM; in the assay with MCF7 breast it was over 50.9 µM. Besides, the TGI was 31.7 µM in the assay on NCI-H460 lung, over 39.6 µM with U251 CNS, over 80.7 µM with RXF 393 renal and over 44.5 µM with HT29 colon.

For `O=C1CC(=O)N(C(=O)c2nn(-c3ccc(Cl)cc3)cc2O)N1`, the GI50 in the assay with SN12C renal was 0.494 µM; in the assay with SF-539 CNS it was 0.371 µM; with UACC-257 melanoma, 0.8 µM; with SK-OV-3 ovarian it was 1.85 µM; in the assay with DU-145 prostate, 0.923 µM; with MCF7 breast it was 1.24 µM. Further, the GI50 was 0.345 µM in the assay on NCI-H460 lung, 0.147 µM with U251 CNS, 0.191 µM in the assay with RXF 393 renal and 0.585 µM in the assay with HT29 colon. The TGI with SN12C renal was over 100 µM; with SF-539 CNS it was over 63 µM; with SK-OV-3 ovarian, over 100 µM; in the assay with DU-145 prostate, over 100 µM; with MCF7 breast it was over 100 µM; in the assay on NCI-H460 lung, over 100 µM. Further, the TGI in the assay with U251 CNS was over 100 µM; with RXF 393 renal it was over 47 µM; in the assay with HT29 colon it was over 50.4 µM.

Take `NC[C@H]1Nc2ccccc2[C@@H](O)C1O` (stereo partly drawn): the TGI in the assay on SN12C renal, in the assay with SF-539 CNS, with UACC-257 melanoma, in the assay on SK-OV-3 ovarian, in the assay with DU-145 prostate and in the assay on MCF7 breast was over 100 µM in each case. Moreover, the TGI in the assay on NCI-H460 lung, in the assay with U251 CNS, in the assay with RXF 393 renal and in the assay on HT29 colon was over 100 µM throughout.

In the case of `C[C@]12CC[C@@H]3c4cc(-c5ccc(F)cc5)c(O)cc4CC[C@H]3[C@@H]1CC[C@@H]2O`, the GI50 in the assay with SN12C renal is 10 µM; in the assay with SF-539 CNS, 9.42 µM; in the assay on UACC-257 melanoma it was 15.3 µM; with SK-OV-3 ovarian, 13.3 µM; in the assay with DU-145 prostate, 12.5 µM; with MCF7 breast, 5.21 µM. The GI50 with NCI-H460 lung is 4.26 µM; in the assay with U251 CNS it was 5.54 µM; in the assay with RXF 393 renal, 2.66 µM; in the assay on HT29 colon it was 6.54 µM. For the same molecule, the TGI with SN12C renal was 22.4 µM; in the assay on SF-539 CNS, 22.9 µM; in the assay with UACC-257 melanoma, 29.6 µM; in the assay with SK-OV-3 ovarian, 28.2 µM; in the assay on DU-145 prostate, 25 µM; in the assay with MCF7 breast it was 18.6 µM. Besides, the TGI in the assay on NCI-H460 lung was 19.6 µM; in the assay on U251 CNS, 17.9 µM; in the assay with RXF 393 renal it was 5.9 µM; with HT29 colon, 20.2 µM.

Regarding `O=c1cc(N2CCN(CCCCCOc3cc(O)c4c(=O)cc(-c5ccccc5)oc4c3)CC2)c2ccccc2o1`, the GI50 was 45.4 µM in the assay on SN12C renal; 35.6 µM with SF-539 CNS; over 100 µM in the assay with UACC-257 melanoma; over 100 µM in the assay on SK-OV-3 ovarian; 89 µM with DU-145 prostate; 83.1 µM in the assay on MCF7 breast. The GI50 in the assay with NCI-H460 lung is over 100 µM; with U251 CNS it was over 100 µM; in the assay with RXF 393 renal, over 100 µM; with HT29 colon, 17.4 µM. For the same molecule, the TGI in the assay on SN12C renal, with SF-539 CNS, with UACC-257 melanoma, with SK-OV-3 ovarian, with DU-145 prostate and in the assay with MCF7 breast was over 100 µM each time. The TGI with NCI-H460 lung, in the assay with U251 CNS, in the assay on RXF 393 renal and in the assay on HT29 colon was over 100 µM each time.
